Reference: PubChem BioAssay AID463199 (Broad Institute, 2010)
Activity calls are given as the source filed them.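 Rule for the calls: active = AC50, the dose giving half-maximal effect, exceeds a fixed cutoff for a compound that rescues yeast growth under heat; inactive = the rest, inconclusive results apart.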

Test system: S. cerevisiae Burl-1 ts mutant growth, BacTiter-Glo, 38.5C 24 h
Assay: restored growth of temperature-sensitive Burl-1 yeast – whole organism, S. cerevisiae, Burl-1 ts mutant, luminescence, counter-screen for SUMOylation pathway inhibitor project, dose response (AID 463199)

SMILES | AC50
O=C(Nc1nnc(COc2ccc(F)cc2)s1)c1cccs1 | > 42 µM (inactive)
Cc1ccc(C)c(OCCCC(=O)N2CCOCC2)c1 | > 42 µM (inactive)
Cc1ccc(Oc2ccc(OCC(=O)Nc3ccncc3)cc2)cc1 | > 42 µM (inactive)
O=CNCCCc1nc2ccccc2n1CCc1ccccc1 | > 42 µM (inactive)
CCOc1ccc(Br)cc1S(=O)(=O)N1CCC(C(N)=O)CC1 | > 42 µM (inactive)
CC(C)C1=CC(=Nc2ccc(S(N)(=O)=O)cc2)C=C(C(C)C)C1=O | > 42 µM (inactive)
O=C(Cc1ccccc1)N1CCCC1c1ccccc1 (configuration not stated) | > 42 µM (inactive)
O=C(Nc1cnn(Cc2ccc(Cl)cc2)c1)c1ccc([N+](=O)[O-])cc1 | > 42 µM (inactive)
CC1CN(CCCOc2ccc([N+](=O)[O-])cc2)CC(C)O1 (configuration not stated) | > 42 µM (inactive)
COc1ccc(C(=O)N/C(=C\c2cc(OC)c(OC)cc2[N+](=O)[O-])C(=O)NCCO)cc1 | > 42 µM (inactive)
COc1ccccc1NC(=O)c1nn(-c2cccc(C(F)(F)F)c2)ccc1=O | 12 µM
CS(=O)(=O)c1ccc(Cl)c(C(=O)O)c1 | > 42 µM (inactive)
CC(C)C1OC2(C)OC(=N)C1(C#N)C(C#N)(C#N)C2c1ccccc1 (configuration not stated) | > 42 µM (inactive)
Nc1cc(Cl)ccc1N1CCOCC1 | > 42 µM (inactive)
O=C(/C=C/NNC(=O)c1ccc(Br)cc1)c1ccccc1 | > 42 µM (inactive)
CC1CCN(CCCOc2ccc(OCc3ccccc3)cc2)CC1 | > 42 µM (inactive)
COc1ccc2oc(=O)c(C(=O)NCc3ccco3)cc2c1 | 15.5 µM
COCCCNC(=O)c1cc2cc([N+](=O)[O-])cc(OC)c2oc1=O | > 42 µM (inactive)
CCC(C(=O)Nc1cccnc1)c1ccccc1 (configuration not stated) | > 42 µM (inactive)
CCc1nccn1S(=O)(=O)c1cc(OC)ccc1OC | > 42 µM (inactive)
COc1ccccc1/C=C/C(=O)c1c2c(c(C)[nH]c1=O)CCCC2 | > 42 µM (inactive)
O=C(O)CCC(=O)N1N=C(c2c(-c3ccccc3)c3cc(Cl)ccc3[nH]c2=O)CC1c1ccco1 (configuration not stated) | > 42 µM (inactive)
CN(C)C(=O)CNC(=O)C1CCCCC1 | > 42 µM (inactive)
Cc1ccc(-c2nc(-c3cccnc3)sc2CC(=O)O)cc1 | > 42 µM (inactive)
COc1ccccc1CNC(=O)C(C)Sc1ccc(C)cc1 (configuration not stated) | > 42 µM (inactive)
COc1nc(-c2ccccc2)ccc1-c1noc(-c2ccccc2)n1 | > 42 µM (inactive)

SMILES | AC50
CN(CCOc1ccc(Cl)cc1)CC(=O)Nc1ccc(OC(F)F)cc1 | > 42 µM (inactive)
Cc1ccc(C(=O)/C=C/c2ccc(-c3ccccc3[N+](=O)[O-])o2)cc1 | > 42 µM (inactive)
CCN(CC)/C(=N\S(=O)(=O)c1ccc(F)cc1)c1ccccc1 | > 21 µM (inactive)
COc1cccc(Nc2nc(C)nc3c2oc2ccccc23)c1 | > 42 µM (inactive)
CC1(OC(=O)CCc2ccccc2)C(=O)C=C2C=C(c3ccc(C#N)cc3)N(CC3CC3)C=C2C1=O (configuration not stated) | > 42 µM (inactive)
CC(C)(C)n1nnnc1C(c1ccc(Cl)cc1)N(Cc1cccnc1)Cc1ccco1 (configuration not stated) | > 42 µM (inactive)
O=C(c1ccncc1)N(Cc1ccccc1)Cc1nc2ccccc2c(=O)[nH]1 | > 42 µM (inactive)
N#CCC(=O)N/N=C/c1ccc(OS(=O)(=O)c2ccccc2)cc1 | > 42 µM (inactive)
O=C(NC(=S)Nc1ccccc1N1CCCC1)c1ccc([N+](=O)[O-])cc1 | > 42 µM (inactive)
CCOc1ccc(/C=N/NC(=O)c2ccc(CSc3nc4ccccc4[nH]3)cc2)cc1 | > 42 µM (inactive)
Cc1cc(NC(=O)c2ccc3c(c2)C(=O)N(C(C)(C)C)C3=O)no1 | > 42 µM (inactive)
CC(=O)N1CCCc2cc(S(=O)(=O)Nc3ccc(C)cc3C)ccc21 | > 42 µM (inactive)
COc1ccc(-c2[nH]ncc2CNCCn2cccn2)c(F)c1 | > 42 µM (inactive)
C=C1C(O)[C@@H]2O[C@]3(CC[C@H](/C=C/C(C)[C@@H]4CC(C)=CC5(O[C@H](C[C@@](C)(O)C(=O)O)CCC5O)O4)O3)CC[C@H]2O[C@@H]1C(O)CC(C)[C@H]1OC2(CCCCO2)CCC1C (some centres not stated) | 4.06 µM
COc1ccc(-n2c(-c3ccccc3)nc3ccccc3c2=O)cc1 | > 42 µM (inactive)
O=C(CSc1ncccn1)c1ccccc1Br | > 42 µM (inactive)
CCCC1Cc2c(sc3ncnc(N)c23)CO1 (configuration not stated) | 9.15 µM
COc1ccc(NC(=O)CCC(=O)Nc2nnc(C(F)(F)F)s2)c(OC)c1 | > 42 µM (inactive)
S=C(Nc1ccccc1Cl)N1CCOCC1 | > 42 µM (inactive)
CC1=C(C)CS(=O)N(S(=O)(=O)c2ccc(Cl)cc2)C1 (configuration not stated) | 12.1 µM
COc1ccc(/C=C(\C#N)C(=O)c2cccn2C)cc1 | > 42 µM (inactive)
COc1cc(CN2CCNC(=O)C2CC(=O)NCCc2ncccc2C)cc(OC)c1 (configuration not stated) | > 42 µM (inactive)
O=C1c2ccccc2S(=O)(=O)N1Cc1cc(=O)n2ccsc2n1 | > 42 µM (inactive)
O=C(COC(=O)c1cccc(Br)c1)Nc1ccc2[nH]c(=O)[nH]c2c1 | > 42 µM (inactive)
Nc1ccnc(=O)[nH]1 | > 42 µM (inactive)
CCN(C(=S)NCCOC)c1cccc2ccccc12 | > 42 µM (inactive)

SMILES | AC50
O=C(CCCc1nc(-c2ccc(Cl)cc2)no1)NC1CCCCC1 | > 42 µM (inactive)
CCOC(=O)C1=C(C)Nc2ncnn2C1/C=C/c1ccccc1 (configuration not stated) | > 42 µM (inactive)
COc1ccc(C(=O)Sc2ccc(Cl)cc2)cc1OC | > 42 µM (inactive)
O=C(COc1ccc(Cl)cc1)NCCCNC(=O)c1ccccn1 | > 42 µM (inactive)
O=C(CSc1nnc(-c2ccccc2Cl)o1)Oc1ccc(Br)cc1 | > 42 µM (inactive)
CCOc1ccc(C(=O)Nc2ccc(N3CCN(C)CC3)cc2)cc1[N+](=O)[O-] | > 42 µM (inactive)
Cc1ccccc1Nc1cc(=O)oc2ccccc12 | > 42 µM (inactive)
O=C(/C(=N\Nc1ccc(Br)cc1)Sc1nnnn1-c1ccccc1)c1ccccc1 | > 42 µM (inactive)
CCCCCCC(C)n1[nH]c(=O)c2c(C)cc(=O)[nH]c21 (configuration not stated) | > 42 µM (inactive)
Cn1cc(C(=O)Cc2ccccc2)c2ccccc21 | > 42 µM (inactive)
O=c1[nH]nc(Cc2ccc(-c3ccccc3Cl)o2)c2ccccc12 | > 42 µM (inactive)
COC(=O)c1ccc(Cn2cc(Cl)cn2)cc1 | > 42 µM (inactive)
CC(NC(=O)OCc1ccccc1)C(=O)N1CC(O)CC1C(=O)O (configuration not stated) | > 21 µM (inactive)
Cc1cc(S(=O)(=O)N2CCCC(N3CCOCC3)C2)c(C)cc1Cl (configuration not stated) | > 42 µM (inactive)
CCOC(=O)C1CCN(C(=O)c2sccc2Cl)CC1 | > 42 µM (inactive)
Cc1cc(=O)oc2ccc(OC(=O)CC(C)C)cc12 | > 42 µM (inactive)
Cc1cnc(C(=O)OC(C(=O)c2c[nH]c3ccccc23)c2ccccc2)cn1 (configuration not stated) | > 42 µM (inactive)
Nc1ccc(N2CCN(c3ccc(F)cc3)CC2)cc1 | > 42 µM (inactive)
COc1cccc(OC)c1C(=O)N1CCN(Cc2ccccc2C)CC1 | > 42 µM (inactive)
O=C(CCn1cnnn1)Nc1ccc(Cl)cc1Cl | > 42 µM (inactive)
Cn1c(=O)c2c(ncn2CC(=O)OCC(=O)Nc2ccc(Cl)cc2)n(C)c1=O | > 42 µM (inactive)
O=C(C1CCCN(S(=O)(=O)c2cnc[nH]2)C1)N1CCN(c2ccc(Cl)cc2)CC1 (configuration not stated) | > 42 µM (inactive)
CC1CC(N(C(=O)c2ccccc2Cl)c2ccccc2)c2ccccc2N1 (configuration not stated) | > 42 µM (inactive)
N/C(=N\N=C\c1ccc(O)cc1)c1nonc1N | > 42 µM (inactive)
O=c1[nH][nH]c(C(F)(F)F)c1C=NCc1cccs1 | > 42 µM (inactive)
CC1CN(S(=O)(=O)c2cccc(C(=O)N=c3sccn3C)c2)CC(C)O1 (configuration not stated) | > 42 µM (inactive)

SMILES | AC50
O=C(CSc1nnc(-c2ccc(Br)cc2)o1)Nc1cccc2ccccc12 | > 42 µM (inactive)
CN(C)C(/C=C/Nc1cccc(Br)c1)=C(C#N)C#N | > 42 µM (inactive)
CCCS(=O)(=O)N1CCC(C(=O)N2CCc3ccccc3C2)CC1 | > 42 µM (inactive)
CCc1ccc(N2C(=O)CC(N3CCC(C(=O)OC)CC3)C2=O)cc1 (configuration not stated) | > 42 µM (inactive)
Cc1[nH]n(-c2ccccc2)c(=O)c1C(C[N+](=O)[O-])c1ccc(Br)cc1 (configuration not stated) | 42.1 µM
O=C1CN(C(=O)c2c(F)cccc2F)C(c2ccc(F)cc2)c2cc(F)ccc2N1 (configuration not stated) | > 42 µM (inactive)
O=C(O)CSc1ncnc2sc(-c3ccccc3)cc12 | > 42 µM (inactive)
Cn1c(=O)[nH]c(=O)c2c1nc(NCCN)n2CCOc1ccccc1 | > 42 µM (inactive)
COc1cc2ccccc2cc1C(=O)Nc1ccc(CN2CCOCC2)cc1 | > 42 µM (inactive)
Cc1ccsc1C(=O)NCCc1ccc(S(N)(=O)=O)cc1 | > 42 µM (inactive)
CC(C)CCNC(=O)Cn1c(=O)oc2cc(S(=O)(=O)N3CC(C)CC(C)C3)ccc21 (configuration not stated) | > 42 µM (inactive)
CN(CC(=O)NCc1cccs1)S(=O)(=O)c1cccc2nsnc12 | > 42 µM (inactive)
O=C(NCCCN1CCOCC1)C1CCC(=O)N1CCc1ccccc1 (configuration not stated) | > 42 µM (inactive)
c1ccc2c(C[C@@H]3CNCCN3CCCCC3CCCCC3)cccc2c1 | > 42 µM (inactive)
CCOC(=O)C1=C(C)NC(=O)CC1c1cc2c(cc1[N+](=O)[O-])OCO2 (configuration not stated) | 22.3 µM
CCCn1nc(C(=O)NNC(=O)c2cc(S(=O)(=O)NC)ccc2Br)c2ccccc2c1=O | > 42 µM (inactive)
COc1ccc(-c2cc(C(=O)Nc3cc(C)ccc3O)no2)cc1 | > 42 µM (inactive)
Cc1ccc(NC(=O)CN2C(=O)COc3ccc(S(=O)(=O)N4CCOCC4)cc32)cc1F | > 42 µM (inactive)
COc1ccc(-c2nnc(SCC(=O)N3CCCCC3)o2)cc1 | > 42 µM (inactive)
CC(C)C(=O)Nc1ccc(-c2nc3cccnc3o2)cc1 | > 42 µM (inactive)
Cc1cc(Nc2nc3c(c(=O)n(C)c(=O)n3C)n2C)n(-c2ccc(Cl)cc2)n1 | > 42 µM (inactive)
CC(C)(C)C(=O)NC1CCN(CC(=O)Nc2ccc3c(c2)OCO3)CC1 | > 42 µM (inactive)
CCCc1ccc(S(=O)(=O)NCCc2ccncc2)cc1 | > 42 µM (inactive)
C=CC(=O)NC1CC2CCC1(C)C2(C)C (configuration not stated) | > 42 µM (inactive)
